Holding throughout (format): cell-based
Test [1] concerns the target T1, human somatostatin receptor subtype 2 (Homo sapiens, UniProt P30874).
T1 construct: expressed in transfected cells
Briefly: Functional cAMP assay for SSTR2 agonists (HTRF) in CHO-K1 cells. The conditions noted are these: CHO-K1 cells stably expressing human SST2, 20 min; read-out: hSST2 cAMP Avg EC50. In short, it runs like this:
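CHO-K1 cells stably expressing receptor, plated 4 days before assay, treated 20 min at 37° C. with compound (typically 0-10,000 nM final) plus IBMX and 1.6 μM NKH477 to raise cAMP. HTRF read, 665/620 nm ratio; cAMP from standard curve, EC50 fitted.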
A general note: cAMP levels reflect the balance of adenylyl cyclase and phosphodiesterase activity.

The next test addresses T2, SST2 (Homo sapiens, UniProt P30874).
T2 construct: host or cells: PathHunter CHO-K1 SST2 cells
Briefly: PathHunter CHO-K1 SST2 internalization assay. Conditions: PathHunter CHO-K1 SST2, 90 min; read-out: Internalization EC50. The procedure, abridged: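 PathHunter CHO-K1 SST2 cells, seeded and grown 48 h, were exposed to 11-point 1:3 dilutions of SMDC (top final 10 uM) for 90 min at 37 C, 5% CO2. Beta-Glo luminescence was read after 60 min at room temperature. Background-corrected duplicate means were fitted by four-parameter nonlinear regression to give IC50.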

The subject of test [2] is NCI-H524 (ATCC) human small cell lung cancer cells. The conditions noted are these: 2 h. In short, it runs like this:
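NCI-H524 cells (5,000/well) were exposed 24 h after plating to SMDC for 2 h, 11-point two-fold series from 1 uM. After washout they grew a further 70 h. Proliferation was read by CellTiter-Glo luminescence, % inhibition taken vs untreated control, and IC50 fitted by four-parameter nonlinear regression.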

The results in this text go back to patent US12134610B2, “Somatostatin subtype-2 receptor (SST2R) targeted therapeutics and uses thereof” (priority 2022, dated 2024).

Starred links: 1 amine or outer side, 2 acyl side, 3 side chain; linkers in the order of their positions; H or OH if unused. Non-standard residues stand in square brackets, D forms with d. Residues, ends and D or L forms follow the SMILES beside them. *: point of attachment. X1 = Cc1cc(F)cc(-c2cnc(NCCNC(=O)CCOCCC(=O)*)c(-c3nc4ccc(Cl)cc4[nH]3)c2N2CCC(N)CC2)c1; X3 = Cc1cc(F)cc(-c2cnc(NCCN*)c(-c3nc4ccc(Cl)cc4[nH]3)c2N2CCC(N)CC2)c1; Dolaproine = CO[C@@H]([C@@H]1CCCN1)[C@@H](C)C(=O)O; Dil = CC[C@H](C)[C@H](NC)[C@@H](CC(=O)O)OC; PABC = O=C(OCc1ccc(N[*:1])cc1)[*:2]; Glutaryl = O=C(CCCC(=O)[*:2])[*:1]; X2 = C[C@@H](N*)[C@@H](O)c1ccccc1; Cya = N[C@@H](CS(=O)(=O)O)C(=O)O; dCya = N[C@H](CS(=O)(=O)O)C(=O)O; Cit = NC(=O)NCCC[C@H](N)C(=O)O; NMeV = CN[C@H](C(=O)O)C(C)C; Sar = CNCC(=O)O

T1 sequence (P30874 whole entry): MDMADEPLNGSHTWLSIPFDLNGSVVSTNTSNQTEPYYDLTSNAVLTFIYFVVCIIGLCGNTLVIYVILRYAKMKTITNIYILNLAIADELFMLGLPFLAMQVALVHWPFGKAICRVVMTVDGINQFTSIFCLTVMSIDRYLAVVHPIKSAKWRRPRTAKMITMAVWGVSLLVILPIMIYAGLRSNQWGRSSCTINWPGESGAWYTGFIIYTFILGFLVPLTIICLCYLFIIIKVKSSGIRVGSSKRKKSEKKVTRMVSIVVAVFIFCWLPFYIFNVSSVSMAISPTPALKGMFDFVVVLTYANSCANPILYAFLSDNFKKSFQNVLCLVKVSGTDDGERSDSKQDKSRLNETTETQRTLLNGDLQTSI
T2 sequence (P30874 whole entry): as above

Regarding `CC[C@H](C)[C@@H]([C@@H](CC(=O)N1CCC[C@H]1[C@H](OC)[C@@H](C)C(=O)N[C@H](C)[C@@H](O)c1ccccc1)OC)N(C)C(=O)[C@@H](NC(=O)[C@H](C(C)C)N(C)C(=O)OCc1ccc(NC(=O)[C@H](CCCNC(N)=O)NC(=O)[C@@H](NC(=O)CCCC(=O)N(C)CC(=O)N(C)CC(=O)N(C)CC(=O)NCCNc2ncc(-c3cc(C)cc(F)c3)c(N3CCC(N)CC3)c2-c2nc3ccc(Cl)cc3[nH]2)C(C)C)cc1)C(C)C` [Compound 96] ({X3-Sar-Sar-Sar-Glutaryl}-V[Cit][PABC][NMeV]V[Dil][Dolaproine]-X2), the EC50 (commonly the midpoint of the concentration-response curve) was 0.47 nM in test [1], 4.9 nM at SST2 and 21 nM in test [2].

For the molecule `CC[C@H](C)[C@@H]([C@@H](CC(=O)N1CCC[C@H]1[C@H](OC)[C@@H](C)C(=O)N[C@H](C)[C@@H](O)c1ccccc1)OC)N(C)C(=O)[C@@H](NC(=O)[C@H](C(C)C)N(C)C(=O)OCc1ccc(NC(=O)[C@H](CCCNC(N)=O)NC(=O)[C@@H](NC(=O)CCCC(=O)N(C)CC(=O)N(C)CC(=O)N(C)CC(=O)N(C)CC(=O)N(C)CC(=O)NCCNc2ncc(-c3cc(C)cc(F)c3)c(N3CCC(N)CC3)c2-c2nc3ccc(Cl)cc3[nH]2)C(C)C)cc1)C(C)C` [Compound 97], the EC50 was found to be 0.3 nM in test [1], 4.5 nM at SST2 and 35 nM in test [2].

In the case of `CC[C@H](C)[C@@H]([C@@H](CC(=O)N1CCC[C@H]1[C@H](OC)[C@@H](C)C(=O)N[C@H](C)[C@@H](O)c1ccccc1)OC)N(C)C(=O)[C@@H](NC(=O)[C@H](C(C)C)N(C)C(=O)OCc1ccc(NC(=O)[C@H](CCCNC(N)=O)NC(=O)[C@@H](NC(=O)[C@H](CCC(=O)O)NC(=O)[C@H](CCC(=O)O)NC(=O)CCOCCC(=O)NCCNc2ncc(-c3cc(C)cc(F)c3)c(N3CCC(N)CC3)c2-c2nc3ccc(Cl)cc3[nH]2)C(C)C)cc1)C(C)C` [Compound 98] (X1-EEV[Cit][PABC][NMeV]V[Dil][Dolaproine]-X2), the figures for the EC50 (in test [1]; at SST2; in test [2]) were 0.25 nM, 2.9 nM and 120 nM, respectively.

Take `CC[C@H](C)[C@@H]([C@@H](CC(=O)N1CCC[C@H]1[C@H](OC)[C@@H](C)C(=O)N[C@H](C)[C@@H](O)c1ccccc1)OC)N(C)C(=O)[C@@H](NC(=O)[C@H](C(C)C)N(C)C(=O)OCc1ccc(NC(=O)[C@H](CCCNC(N)=O)NC(=O)[C@@H](NC(=O)[C@H](CS(=O)(=O)O)NC(=O)CCOCCC(=O)NCCNc2ncc(-c3cc(C)cc(F)c3)c(N3CCC(N)CC3)c2-c2nc3ccc(Cl)cc3[nH]2)C(C)C)cc1C(=O)NCCN)C(C)C` [Compound 99]: the EC50 in test [1] was 0.19 nM; on SST2, 2.8 nM; in test [2] it was 4.6 nM.

As to `CC[C@H](C)[C@@H]([C@@H](CC(=O)N1CCC[C@H]1[C@H](OC)[C@@H](C)C(=O)N[C@H](C)[C@@H](O)c1ccccc1)OC)N(C)C(=O)[C@@H](NC(=O)[C@H](C(C)C)N(C)C(=O)OCc1ccc(NC(=O)[C@H](CCCNC(N)=O)NC(=O)[C@@H](NC(=O)[C@H](CS(=O)(=O)O)NC(=O)CCOCCOCCOCCOCCC(=O)NCCNc2ncc(-c3cc(C)cc(F)c3)c(N3CCC(N)CC3)c2-c2nc3ccc(Cl)cc3[nH]2)C(C)C)cc1C(=O)NCCN)C(C)C` [Compound 100], the EC50 in test [1] amounted to 0.14 nM; at SST2, 3.3 nM; in test [2], 6.4 nM.

For `CC[C@H](C)[C@@H]([C@@H](CC(=O)N1CCC[C@H]1[C@H](OC)[C@@H](C)C(=O)N[C@H](C)[C@@H](O)c1ccccc1)OC)N(C)C(=O)[C@@H](NC(=O)[C@H](C(C)C)N(C)C(=O)OCc1ccc(NC(=O)[C@H](CCCNC(N)=O)NC(=O)[C@@H](NC(=O)[C@@H](CCC(=O)O)NC(=O)CCOCCC(=O)NCCNc2ncc(-c3cc(C)cc(F)c3)c(N3CCC(N)CC3)c2-c2nc3ccc(Cl)cc3[nH]2)C(C)C)cc1C(=O)NCCN)C(C)C` [Compound 101], the concentration giving a half-maximal response (EC50) in test [1] stood at 0.22 nM; on SST2, 6.7 nM; in test [2], 34 nM.

Turning to `CC[C@H](C)[C@@H]([C@@H](CC(=O)N1CCC[C@H]1[C@H](OC)[C@@H](C)C(=O)N[C@H](C)[C@@H](O)c1ccccc1)OC)N(C)C(=O)[C@@H](NC(=O)[C@H](C(C)C)N(C)C(=O)OCc1ccc(NC(=O)[C@H](CCCNC(N)=O)NC(=O)[C@@H](NC(=O)[C@@H](CCC(=O)O)NC(=O)CCOCCC(=O)NCCNc2ncc(-c3cc(C)cc(F)c3)c(N3CCC(N)CC3)c2-c2nc3ccc(Cl)cc3[nH]2)C(C)C)cc1)C(C)C` [Compound 102] (X1-[dE]V[Cit][PABC][NMeV]V[Dil][Dolaproine]-X2), the EC50 in test [1] is 0.067 nM; on SST2, 19 nM; in test [2], 130 nM.

For `CC[C@H](C)[C@@H]([C@@H](CC(=O)N1CCC[C@H]1[C@H](OC)[C@@H](C)C(=O)N[C@H](C)[C@@H](O)c1ccccc1)OC)N(C)C(=O)[C@@H](NC(=O)[C@H](C(C)C)N(C)C(=O)OCc1ccc(NC(=O)[C@H](CCCNC(N)=O)NC(=O)[C@@H](NC(=O)[C@@H](CCC(=O)O)NC(=O)[C@@H](CCC(=O)O)NC(=O)CCOCCC(=O)NCCNc2ncc(-c3cc(C)cc(F)c3)c(N3CCC(N)CC3)c2-c2nc3ccc(Cl)cc3[nH]2)C(C)C)cc1)C(C)C` [Compound 103] (X1-[dE][dE]V[Cit][PABC][NMeV]V[Dil][Dolaproine]-X2), the EC50 in test [1] amounted to 0.26 nM; on SST2 it was 24 nM; in test [2], 620 nM.

As to `CC[C@H](C)[C@@H]([C@@H](CC(=O)N1CCC[C@H]1[C@H](OC)[C@@H](C)C(=O)N[C@H](C)[C@@H](O)c1ccccc1)OC)N(C)C(=O)[C@@H](NC(=O)[C@H](C(C)C)N(C)C(=O)OCc1ccc(NC(=O)[C@H](CCCNC(N)=O)NC(=O)[C@@H](NC(=O)[C@@H](CS(=O)(=O)O)NC(=O)CCOCCC(=O)NCCNc2ncc(-c3cc(C)cc(F)c3)c(N3CCC(N)CC3)c2-c2nc3ccc(Cl)cc3[nH]2)C(C)C)cc1)C(C)C` [Compound 104] (X1-[dCya]V[Cit][PABC][NMeV]V[Dil][Dolaproine]-X2), the EC50 in test [1] stood at 0.062 nM; on SST2 it was 2.8 nM; in test [2], 24 nM.

Take `CC[C@H](C)[C@@H]([C@@H](CC(=O)N1CCC[C@H]1[C@H](OC)[C@@H](C)C(=O)N[C@H](C)[C@@H](O)c1ccccc1)OC)N(C)C(=O)[C@@H](NC(=O)[C@H](C(C)C)N(C)C(=O)OCc1ccc(NC(=O)[C@H](CCCNC(N)=O)NC(=O)[C@@H](NC(=O)[C@H](CS(=O)(=O)O)NC(=O)[C@H](CCC(=O)O)NC(=O)CCOCCC(=O)NCCNc2ncc(-c3cc(C)cc(F)c3)c(N3CCC(N)CC3)c2-c2nc3ccc(Cl)cc3[nH]2)C(C)C)cc1)C(C)C` [Compound 105] (X1-E[Cya]V[Cit][PABC][NMeV]V[Dil][Dolaproine]-X2): the EC50 in test [1] was found to be 0.18 nM; at SST2, 14 nM; in test [2] it was 290 nM.

As to `CC[C@H](C)[C@@H]([C@@H](CC(=O)N1CCC[C@H]1[C@H](OC)[C@@H](C)C(=O)N[C@H](C)[C@@H](O)c1ccccc1)OC)N(C)C(=O)[C@@H](NC(=O)[C@H](C(C)C)N(C)C(=O)OCc1ccc(NC(=O)[C@H](CCCNC(N)=O)NC(=O)[C@@H](NC(=O)[C@H](CS(=O)(=O)O)NC(=O)[C@@H](CCC(=O)O)NC(=O)CCOCCC(=O)NCCNc2ncc(-c3cc(C)cc(F)c3)c(N3CCC(N)CC3)c2-c2nc3ccc(Cl)cc3[nH]2)C(C)C)cc1)C(C)C` [Compound 106] (X1-[dE][Cya]V[Cit][PABC][NMeV]V[Dil][Dolaproine]-X2), the EC50 stood at 0.25 nM in test [1], 16 nM at SST2 and 460 nM in test [2].

Take `CC[C@H](C)[C@@H]([C@@H](CC(=O)N1CCC[C@H]1[C@H](OC)[C@@H](C)C(=O)N[C@H](C)[C@@H](O)c1ccccc1)OC)N(C)C(=O)[C@@H](NC(=O)[C@H](C(C)C)N(C)C(=O)OCc1ccc(NC(=O)[C@H](CCCNC(N)=O)NC(=O)[C@@H](NC(=O)[C@H](CC(=O)O)NC(=O)[C@H](CC(=O)O)NC(=O)[C@H](CC(=O)O)NC(=O)CCOCCC(=O)NCCNc2ncc(-c3cc(C)cc(F)c3)c(N3CCC(N)CC3)c2-c2nc3ccc(Cl)cc3[nH]2)C(C)C)cc1)C(C)C` [Compound 108] (X1-DDDV[Cit][PABC][NMeV]V[Dil][Dolaproine]-X2): the EC50 worked out at 1.9 nM in test [1], 53 nM on SST2 and 3300 nM in test [2].

Turning to `CC[C@H](C)[C@@H]([C@@H](CC(=O)N1CCC[C@H]1[C@H](OC)[C@@H](C)C(=O)N[C@H](C)[C@@H](O)c1ccccc1)OC)N(C)C(=O)[C@@H](NC(=O)[C@H](C(C)C)N(C)C(=O)OCc1ccc(NC(=O)[C@H](CCCNC(N)=O)NC(=O)[C@@H](NC(=O)[C@@H](CC(=O)O)NC(=O)[C@@H](CC(=O)O)NC(=O)[C@@H](CC(=O)O)NC(=O)CCOCCC(=O)NCCNc2ncc(-c3cc(C)cc(F)c3)c(N3CCC(N)CC3)c2-c2nc3ccc(Cl)cc3[nH]2)C(C)C)cc1)C(C)C` [Compound 109] (X1-[dD][dD][dD]V[Cit][PABC][NMeV]V[Dil][Dolaproine]-X2), the EC50 worked out at 0.7 nM in test [1], 11 nM at SST2 and 2500 nM in test [2].
